Earlier results as cited in patent US20060073539A1 (priority 2001, published 2006).

Test system: human hepatocyte and neuroblastoma cells
Details: cited from earlier work

SMILES	effect on cell metabolism
CCOP(=O)(OCC)Oc1ccc([N+](=O)[O-])cc1 [paraoxon]	opposite effects
CCOP(=S)(OCC)Oc1ccc([N+](=O)[O-])cc1 [parathion]	opposite effects
